ChEMBL document CHEMBL1137334 (J Med Chem, 2006)
≈ marks a conversion by molar mass, not a printed value. Blank lines part the entries; values can stand above or below the compound they belong to.

Key:
[1] = biological target: Proto-oncogene tyrosine-protein kinase Src (Homo sapiens, UniProt P12931)
Description: Inhibition of human c-Src in NIH3T3 cells

A549 = test: Inhibition of A549 cell migration by microdroplet migration assay; assay type: functional, cell-based; settings: Homo sapiens
[2] = AUC (0-24h) in mouse at 20 mg/kg, po; assay type: ADME, organism-based; design: time < 24 hr, dose 20 mg/kg, route oral; settings: plasma
[3] = biological target: Vascular endothelial growth factor receptor 2 (Homo sapiens, UniProt P35968); test: Inhibition of KDR
Vascular endothelial growth factor receptor 2, sequence (P35968 whole entry): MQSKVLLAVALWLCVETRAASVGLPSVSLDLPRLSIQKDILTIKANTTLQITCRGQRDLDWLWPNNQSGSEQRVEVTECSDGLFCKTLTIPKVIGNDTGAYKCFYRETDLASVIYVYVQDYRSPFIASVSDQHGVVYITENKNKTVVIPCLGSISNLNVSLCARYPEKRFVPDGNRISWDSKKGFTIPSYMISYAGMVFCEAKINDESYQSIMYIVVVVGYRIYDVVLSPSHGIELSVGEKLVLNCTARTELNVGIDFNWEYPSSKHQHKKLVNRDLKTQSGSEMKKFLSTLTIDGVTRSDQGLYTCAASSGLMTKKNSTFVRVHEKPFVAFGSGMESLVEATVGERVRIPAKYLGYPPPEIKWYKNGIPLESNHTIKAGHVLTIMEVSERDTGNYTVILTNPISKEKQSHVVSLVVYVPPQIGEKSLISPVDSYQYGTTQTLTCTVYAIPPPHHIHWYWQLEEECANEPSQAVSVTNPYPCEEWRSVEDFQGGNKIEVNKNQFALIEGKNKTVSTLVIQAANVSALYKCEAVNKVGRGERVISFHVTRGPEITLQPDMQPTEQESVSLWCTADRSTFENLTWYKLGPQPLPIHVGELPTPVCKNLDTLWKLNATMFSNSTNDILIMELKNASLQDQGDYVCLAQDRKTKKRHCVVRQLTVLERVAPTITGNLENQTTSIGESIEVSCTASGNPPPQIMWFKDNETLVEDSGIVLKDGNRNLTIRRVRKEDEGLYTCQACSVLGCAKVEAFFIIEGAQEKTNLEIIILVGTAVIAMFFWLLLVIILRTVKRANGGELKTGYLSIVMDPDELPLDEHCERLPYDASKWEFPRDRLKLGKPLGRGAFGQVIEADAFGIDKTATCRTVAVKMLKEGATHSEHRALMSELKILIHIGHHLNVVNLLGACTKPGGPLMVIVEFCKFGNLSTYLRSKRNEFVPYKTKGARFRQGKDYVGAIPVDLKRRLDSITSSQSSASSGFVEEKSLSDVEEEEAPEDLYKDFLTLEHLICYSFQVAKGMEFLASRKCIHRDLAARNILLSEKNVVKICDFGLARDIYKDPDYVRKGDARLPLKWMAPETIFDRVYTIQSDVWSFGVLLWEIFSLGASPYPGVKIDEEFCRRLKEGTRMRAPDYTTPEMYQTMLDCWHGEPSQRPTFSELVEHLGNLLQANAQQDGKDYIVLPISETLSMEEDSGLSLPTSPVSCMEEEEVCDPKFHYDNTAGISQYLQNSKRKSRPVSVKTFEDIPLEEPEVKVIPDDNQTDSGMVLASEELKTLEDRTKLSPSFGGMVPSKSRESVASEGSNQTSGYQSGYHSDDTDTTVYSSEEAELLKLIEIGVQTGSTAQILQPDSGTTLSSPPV

[4] = Percent of unbound ligand in rat plasma; assay type: ADME, organism-based
[5] = Aqueous solubility at pH 7.4; assay type: physicochemical
[6] = Lipophilicity, log D at pH 7.4; assay type: physicochemical; settings: buffer
[7] = Dissociation constant, pKa of the basic side chain of compound; assay type: physicochemical
[8] = Volume of distribution in rat at 20 mg/kg, po and 2 mg/kg, iv; assay type: ADME, organism-based; settings: in vivo, read-out: Vdss
[9] = biological target: c-Jun N-terminal kinase, JNK (Homo sapiens, UniProt P45983+P53779+P45984); test: Inhibition of JNK; assay type: protein assay
[10] = Permeability from apical to basolateral side of NIH 3T3 cell; assay type: ADME, cell-based, NIH3T3; settings: mouse, not told; read-out: permeability
[11] = Bioavailability in rat at 20 mg/kg, po and 2 mg/kg, iv; assay type: ADME, organism-based; settings: in vivo
[12] = (§1) Half life in male dog; assay type: ADME, organism-based, Canis lupus familiaris; settings: male, in vivo
[13] = biological target: Fibroblast growth factor receptor 1 (Homo sapiens, UniProt P11362); test: Inhibition of recombinant FGFR1 by ELISA
[14] = Inhibition of Chk; design: species or system Homo sapiens
[15] = biological target: cAMP-dependent protein kinase (PKA) (Homo sapiens, UniProt P22694+P17612+P22612); test: Inhibition of PKA; assay type: protein assay
[16] = Half life in rat at 20 mg/kg, po and 2 mg/kg, iv; assay type: ADME, organism-based; settings: in vivo
[17] = Percent of unbound ligand in dog plasma; assay type: ADME, organism-based, Canis lupus familiaris
Aurora kinase B = Aurora kinase B (Homo sapiens, UniProt Q96GD4); test: Inhibition of recombinant Aurora B by ELISA
Aurora kinase B, sequence (Q96GD4 whole entry): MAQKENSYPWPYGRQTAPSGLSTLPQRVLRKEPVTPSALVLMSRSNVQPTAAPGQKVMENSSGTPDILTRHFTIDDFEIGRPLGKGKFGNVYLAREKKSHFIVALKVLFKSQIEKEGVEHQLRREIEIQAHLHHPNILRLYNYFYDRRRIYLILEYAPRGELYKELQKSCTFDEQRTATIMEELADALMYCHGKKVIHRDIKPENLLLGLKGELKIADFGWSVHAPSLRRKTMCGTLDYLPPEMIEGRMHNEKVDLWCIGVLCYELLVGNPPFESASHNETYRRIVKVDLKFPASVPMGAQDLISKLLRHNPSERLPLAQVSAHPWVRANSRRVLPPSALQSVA

[18] = biological target: Vascular endothelial growth factor receptor 3 (Homo sapiens, UniProt P35916); test: Inhibition of FLT4 by ELISA
Vascular endothelial growth factor receptor 3, sequence (P35916 whole entry): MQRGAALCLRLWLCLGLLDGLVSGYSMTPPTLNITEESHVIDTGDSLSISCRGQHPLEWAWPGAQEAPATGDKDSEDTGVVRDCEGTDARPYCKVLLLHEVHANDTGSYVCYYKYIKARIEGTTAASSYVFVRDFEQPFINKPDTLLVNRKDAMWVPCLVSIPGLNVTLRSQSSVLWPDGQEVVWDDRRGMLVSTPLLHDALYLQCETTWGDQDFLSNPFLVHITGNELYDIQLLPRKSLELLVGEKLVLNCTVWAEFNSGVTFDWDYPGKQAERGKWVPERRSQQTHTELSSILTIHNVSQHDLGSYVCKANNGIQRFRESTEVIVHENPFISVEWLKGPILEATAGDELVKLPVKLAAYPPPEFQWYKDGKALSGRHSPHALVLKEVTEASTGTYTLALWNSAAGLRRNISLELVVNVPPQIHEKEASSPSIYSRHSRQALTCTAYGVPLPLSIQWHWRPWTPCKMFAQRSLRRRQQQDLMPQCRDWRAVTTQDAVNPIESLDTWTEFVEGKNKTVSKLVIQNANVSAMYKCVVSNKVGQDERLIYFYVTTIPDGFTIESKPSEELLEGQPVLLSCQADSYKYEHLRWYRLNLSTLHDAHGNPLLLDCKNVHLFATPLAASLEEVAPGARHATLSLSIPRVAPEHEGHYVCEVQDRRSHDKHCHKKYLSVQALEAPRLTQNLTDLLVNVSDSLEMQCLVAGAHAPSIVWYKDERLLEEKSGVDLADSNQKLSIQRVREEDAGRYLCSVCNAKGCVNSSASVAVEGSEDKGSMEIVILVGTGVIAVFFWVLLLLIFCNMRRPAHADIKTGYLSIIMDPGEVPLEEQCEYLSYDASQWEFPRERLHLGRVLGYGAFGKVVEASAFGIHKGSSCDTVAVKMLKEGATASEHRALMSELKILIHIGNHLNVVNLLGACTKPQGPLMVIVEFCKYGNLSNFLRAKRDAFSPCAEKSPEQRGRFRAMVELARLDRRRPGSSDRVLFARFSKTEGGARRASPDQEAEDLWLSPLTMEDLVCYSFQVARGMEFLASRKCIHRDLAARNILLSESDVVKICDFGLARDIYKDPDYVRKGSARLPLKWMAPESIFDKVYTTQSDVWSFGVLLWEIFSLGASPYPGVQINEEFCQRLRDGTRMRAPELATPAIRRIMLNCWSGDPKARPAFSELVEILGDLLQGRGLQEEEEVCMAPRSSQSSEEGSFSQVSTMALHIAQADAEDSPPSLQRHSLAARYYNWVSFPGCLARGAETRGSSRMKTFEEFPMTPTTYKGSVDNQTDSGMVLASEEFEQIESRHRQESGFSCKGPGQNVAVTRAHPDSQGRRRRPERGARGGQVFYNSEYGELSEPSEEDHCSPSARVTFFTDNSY

[19] = biological target: Protein kinase C alpha type (Homo sapiens, UniProt P17252); test: Inhibition of PKCalpha
NIH3T3 = test: Antiproliferative activity against NIH 3T3 cells xenografted in athymic rat measured as inhibition of tumor volume at 10 mg/kg/day after 18 days; assay type: functional; settings: NIH3T3, 432 h
[20] = Inhibition of PI3K; design: species or system Homo sapiens
[21] = Bioavailability in male dog; assay type: ADME, organism-based, Canis lupus familiaris; settings: in vivo
[22] = biological target: Tyrosine-protein kinase Yes (Homo sapiens, UniProt P07947); test: Inhibition of recombinant C-YES by ELISA
Tyrosine-protein kinase Yes, sequence (P07947 whole entry): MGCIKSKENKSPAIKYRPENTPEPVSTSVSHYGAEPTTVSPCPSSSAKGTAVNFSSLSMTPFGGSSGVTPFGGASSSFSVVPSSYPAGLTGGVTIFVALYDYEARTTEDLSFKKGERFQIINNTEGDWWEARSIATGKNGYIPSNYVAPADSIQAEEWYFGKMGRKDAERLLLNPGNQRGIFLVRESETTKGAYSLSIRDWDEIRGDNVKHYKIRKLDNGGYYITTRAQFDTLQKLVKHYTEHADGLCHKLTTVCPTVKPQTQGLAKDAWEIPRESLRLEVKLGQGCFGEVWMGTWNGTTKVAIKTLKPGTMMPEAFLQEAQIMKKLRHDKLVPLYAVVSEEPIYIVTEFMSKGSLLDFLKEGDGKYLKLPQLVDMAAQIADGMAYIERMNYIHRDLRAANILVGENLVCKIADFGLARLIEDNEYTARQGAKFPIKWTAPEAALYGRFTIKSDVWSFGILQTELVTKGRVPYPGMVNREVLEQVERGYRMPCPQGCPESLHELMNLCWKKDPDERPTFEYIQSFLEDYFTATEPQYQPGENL

[23] = biological target: 3-phosphoinositide-dependent protein kinase 1 (Homo sapiens, UniProt O15530); test: Inhibition of PDK
[24] = Clearance in male dog; assay type: ADME, organism-based, Canis lupus familiaris; settings: in vivo
[25] = biological target: Tyrosine-protein kinase CSK (Homo sapiens, UniProt P41240); test: Inhibition of recombinant CSK by ELISA
[26] = biological target: Cyclin-dependent kinase 2 (Homo sapiens, UniProt P24941); test: Inhibition of CDK2 by SPA
[27] = biological target: Glycogen synthase kinase-3 beta (Homo sapiens, UniProt P49841); test: Inhibition of GSK3-beta
[28] = Clearance in rat at 20 mg/kg, po and 2 mg/kg, iv; assay type: ADME, organism-based; settings: in vivo
[29] = biological target: Vascular endothelial growth factor receptor 1 (Homo sapiens, UniProt P17948); test: Inhibition of recombinant FLT1 by ELISA
[30] = (§2) Volume of distribution in male dog; assay type: ADME, organism-based, Canis lupus familiaris; settings: male, in vivo, read-out: Vdss
Canis familiaris [31] = species on record: Canis familiaris; test: as §1; assay type: ADME, organism-based, Canis lupus familiaris; settings: in vivo
Canis familiaris [32] = species on record: Canis familiaris; test: as §2; assay type: ADME, organism-based, Canis lupus familiaris; settings: in vivo

Proto-oncogene tyrosine-protein kinase Src, sequence (P12931 2-536 limits assumed): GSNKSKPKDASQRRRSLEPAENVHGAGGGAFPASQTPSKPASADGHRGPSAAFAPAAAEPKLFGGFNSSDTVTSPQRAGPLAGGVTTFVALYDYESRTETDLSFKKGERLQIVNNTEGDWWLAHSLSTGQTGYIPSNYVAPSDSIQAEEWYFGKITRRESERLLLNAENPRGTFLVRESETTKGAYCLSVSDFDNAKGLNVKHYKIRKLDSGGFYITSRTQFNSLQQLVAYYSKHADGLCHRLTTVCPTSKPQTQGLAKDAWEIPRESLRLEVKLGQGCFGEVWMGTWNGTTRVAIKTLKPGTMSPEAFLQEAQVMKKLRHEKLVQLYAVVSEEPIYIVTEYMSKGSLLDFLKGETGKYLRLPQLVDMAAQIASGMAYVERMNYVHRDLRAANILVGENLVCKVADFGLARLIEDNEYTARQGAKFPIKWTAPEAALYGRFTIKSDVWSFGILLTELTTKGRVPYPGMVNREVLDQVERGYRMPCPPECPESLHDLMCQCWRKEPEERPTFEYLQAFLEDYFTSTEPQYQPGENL

- IC50 [1]: 65 nM
Structure (SMILES): CN1CCN(CCOc2cc(OC3CCOCC3)c3c(Nc4c(Cl)ccc5c4OCCO5)ncnc3c2)CC1

- IC50 [1]: 6 nM
- IC50 (A549): 300 nM
- AUC(0-t) at 24 h [2]: 9000 ng·h/mL
- IC50 [3]: > 10 µM
Structure (SMILES): Clc1ccc2c(c1Nc1ncnc3cc(OCCN4CCCC4)cc(OC4CCOCC4)c13)OCO2

- fraction unbound [4]: 0.025
- IC50 [1]: 5 nM
- solubility [5]: 2 µM (≈ 0.974 µg/mL)
- logD [6]: 3.7
- IC50 (A549): 100 nM
- pKa [7]: 6.5
- IC50 [3]: 10 µM
Structure (SMILES): CC(C)Oc1cc(OCCN2CCOCC2)cc2ncnc(Nc3c(Cl)ccc4c3OCO4)c12

- IC50 [1]: 55 nM
- IC50 (A549): 500 nM
- IC50 [3]: > 33 µM
Structure (SMILES): Clc1ccc2c(c1Nc1ncnc3cccc(Oc4ccncc4)c13)OCO2

- IC50 [1]: 230 nM
Structure (SMILES): COc1ccc(Cl)c(Nc2ncnc3cc(OC)cc(OCCCN4CCOCC4)c23)c1

- IC50 [1]: 20 nM
- IC50 (A549): 290 nM
- IC50 [3]: 6.5 µM
Structure (SMILES): CC(=O)N1CCN(CCOc2cc(OC(C)C)c3c(Nc4c(F)ccc5c4OCO5)ncnc3c2)CC1

- IC50 [1]: 3700 nM
Structure (SMILES): COc1ccc(Cl)c(Nc2ncnc3cc(OC)cc(OC)c23)c1

- IC50 [1]: 75 nM
- IC50 (A549): 1200 nM
- IC50 [3]: 5 µM
Structure (SMILES): Clc1ccc2c(c1Nc1ncnc3cc(OCCN4CCCC4)cc(N4CCOCC4)c13)OCO2

- Vd [8]: 15 L/kg
- IC50 [9]: > 10 µM
- fraction unbound [4]: 0.16
- Papp A→B [10]: > 1 ×10⁻⁶ cm/s
- bioavailability [11]: 60%
- half-life [12]: 1740 min
- IC50 [13]: 37 µM
- IC50 [14]: > 10 µM
- IC50 [15]: > 10 µM
- half-life [16]: 210 min
- IC50 [1]: < 4 nM
- fraction unbound [17]: 0.17
- IC50 (Aurora kinase B): 8.9 µM
- IC50 [18]: > 10 µM
- IC50 [19]: > 10 µM
- solubility [5]: 1000 µM (≈ 527 µg/mL)
- IC50 [20]: > 10 µM
- bioavailability [21]: 85%
- logD [6]: 2.3
- IC50 [22]: 3 nM
- IC50 [23]: > 10 µM
- clearance [24]: 15 mL/min/kg
- IC50 (A549): 150 nM
- IC50 [25]: 270 nM
- IC50 [26]: > 10 µM
- IC50 [27]: > 10 µM
- clearance [28]: 48.3 mL/min/kg
- pKa [7]: 9.5
- AUC(0-t) at 24 h [2]: 13000 ng·h/mL
- IC50 [29]: > 33 µM
- IC50 [3]: 2.5 µM
- Vd [30]: 38 L/kg
Structure (SMILES): Clc1ccc2c(c1Nc1ncnc3cc(OCCCN4CCCC4)cc(OC4CCOCC4)c13)OCO2
- inhibition in vivo at 10 mg/kg/day (NIH3T3): 90%

- IC50 [1]: 5 nM
- AUC(0-t) at 24 h [2]: 13000 ng·h/mL
Structure (SMILES): COc1cc2c(Nc3c(Cl)ccc4c3OCO4)ncnc2cc1OCCCN1CCCC1

- IC50 [1]: 80 nM
- IC50 [3]: 0.65 µM
Structure (SMILES): c1cc(Nc2ncnc3cc(OCCN4CCCC4)cc(OC4CCOCC4)c23)c2c(c1)OCO2

- IC50 [1]: 20 nM
- IC50 (A549): 2500 nM
- IC50 [3]: 5.5 µM
Structure (SMILES): COc1ccc(Cl)c(Nc2ncnc3cc(OCCCN4CCOCC4)cc(OC4CCCCC4)c23)c1

- IC50 [1]: 20 nM
- IC50 (A549): 80 nM
Structure (SMILES): COc1ccc(Cl)c(Nc2ncnc3cc(OCCCN4CCOCC4)cc(OC4CCOCC4)c23)c1

- IC50 [1]: 110 nM
Structure (SMILES): Clc1ccc2c(c1Nc1ncnc3cc(OCCN4CCCC4)cc(OC4CCOCC4)c13)OCCO2

- IC50 [1]: 100 nM
Structure (SMILES): CC(C)Oc1cc(OC2CCN(C)CC2)c2c(Nc3c(Cl)ccc4c3OCO4)ncnc2c1

- fraction unbound [4]: 0.075
- T1/2 (Canis familiaris [31]): 4.2 h
- solubility [5]: 324 µM (≈ 144 µg/mL)
- bioavailability [21]: 42%
- logD [6]: 2
- IC50 (A549): 480 nM
- pKa [7]: 9
- Vdss (Canis familiaris [32]): 43 L/kg
Structure (SMILES): COc1ccc(Cl)c(Nc2ncnc3cc(OCC4CCN(C)CC4)c(OC)cc23)c1 [AZM-475271]

- IC50 (A549): 400 nM
Structure (SMILES): COc1ccc(Cl)c(Nc2ncnc3cc(OCCCN4CCOCC4)cc(OC(C)C)c23)c1

- IC50 [1]: 500 nM
Structure (SMILES): CN1CCC(COc2cccc3ncnc(Nc4c(Cl)ccc5c4OCO5)c23)CC1

- IC50 [1]: 40 nM
- IC50 [3]: 0.1 µM
Structure (SMILES): c1cc(Nc2ncnc3cc(OCCCN4CCCC4)cc(OC4CCOCC4)c23)c2c(c1)OCO2

- IC50 [1]: 150 nM
- IC50 [3]: 2.5 µM
Structure (SMILES): COc1cc(OC2CCN(C)CC2)c2c(Nc3cccc4c3OCO4)ncnc2c1
